Experimental findings from BindingDB's records for doi:10.1016/j.bioorg.2015.10.005 (Hazara University, 2015) are described below.

For this assay, the target named is Urease subunit alpha (Sporosarcina pasteurii, UniProt P41020). Nature of the assay: Urease Inhibition Assay. Particulars: pH 7. Here is the method:
This assay was modified from Berthelot assay and was employed for the determination of urease activity. The assay is based on the hydrolysis of urea into ammonia which reacts with phenol-hypochlorite to form light blue colored complex measured at 625 nm. A total volume of 85 µl assay mixture contained 10 µl of 50 mM phosphate buffer, pH 7.0, 10 µl of sample solution and 25 µl of Bacillus pasteurii urease (Sigma) solution (0.015 units). The contents were pre-incubated at 37 °C for 10 min. Then, 40 µl of urea stock solution (20 mM) was added to each well and incubation continued at 37 °C for further 10 min and preread at 625 nm using the 96-well plate reader Synergy HT (Biotek Inc.). Phenol hypochlorite (115 µl) reagent was added in each well (freshly prepared by mixing 45 µl phenol reagent with 70 µl of alkali reagent). For color development, incubation was done at 37 °C for another 10 min. Absorbance was again measured at 625 nm.

Sequence of Urease subunit alpha (P41020 as listed by the source): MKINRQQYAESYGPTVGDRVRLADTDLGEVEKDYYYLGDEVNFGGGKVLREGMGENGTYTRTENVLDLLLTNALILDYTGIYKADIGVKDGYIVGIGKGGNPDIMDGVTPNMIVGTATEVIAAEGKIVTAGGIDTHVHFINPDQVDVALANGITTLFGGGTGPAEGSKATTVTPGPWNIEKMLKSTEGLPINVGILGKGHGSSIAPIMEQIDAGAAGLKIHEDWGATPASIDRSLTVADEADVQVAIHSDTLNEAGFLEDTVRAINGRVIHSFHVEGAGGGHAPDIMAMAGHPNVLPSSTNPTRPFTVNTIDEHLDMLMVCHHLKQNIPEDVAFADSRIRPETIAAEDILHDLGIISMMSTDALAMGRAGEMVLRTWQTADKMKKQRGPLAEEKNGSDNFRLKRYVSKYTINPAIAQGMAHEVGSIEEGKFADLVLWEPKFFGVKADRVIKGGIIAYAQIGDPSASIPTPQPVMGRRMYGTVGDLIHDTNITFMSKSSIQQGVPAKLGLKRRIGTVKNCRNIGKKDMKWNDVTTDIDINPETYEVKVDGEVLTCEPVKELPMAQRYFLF

With `O=C1CS/C(=N/N=C/c2cc(Cl)cc(Cl)c2O)N1` [(E)-2-((E)-(3,5-Dichloro-2-hydroxybenzylidene)hydrazono)thiazolidin-4-one (5)], the IC50 (as a rule, the point on the concentration scale where inhibition reaches its midpoint) came to 26.7 µM. In the case of `CCOc1ccc(/C=N\N=C2/NC(=O)CS2)cc1OC` [(Z)-2-((Z)-(4-Ethoxy-3-methoxybenzoylidine)hydrazono)thiazolidine-4-one (17)] it was 5.75 µM. For `COc1cc(/C=N/N=C2\NC(=O)CS2)cc(OC)c1O` [(E)-2-((E)-(4-Hyrazoxy-3,5-dimethoxybenzylidene)hydrazono)thiazolidin-4-one (9)], the IC50 was 37.9 µM. Regarding `COc1cc(/C=N/N=C2\NC(=O)CS2)cc(Br)c1OC` [(E)-2((E)-(3-Bromo-4,5-dimethoxybenzylidene)hydrazono) thiazolidine-4-one (7)], the IC50 amounted to 36.6 µM. In the case of `COc1ccc(/C=N\N=C2/NC(=O)CS2)c(OC)c1` [(Z)-2-((Z)-(2,4-Dimethoxybenzoylidine)hydrazono)thiazolidine-4-one (18)] it was 69.6 µM; in that of `O=C1CS/C(=N/N=C\c2ccc(O)cc2)N1` [(E)-2((E)-(4-Hydroxybenzylidin)hydrazono)thiazolidine-4-one (6)], 14.6 µM; in that of `C/C(=N/N=C1\NC(=O)CS1)c1ccc([N+](=O)[O-])cc1Br` [(Z)-2-((Z)-(1-(2-Bromo-4-nitrophenyl)ethylidene)hydrazono)thiazolidine-4-one (15)], 2.31 µM. Turning to `O=C1CS/C(=N/N=C\c2ccc(O)c(Cl)c2)N1` [(E)-2-((E)-(3-Chloro-4-hydroxybenzylideno)thiazolidin-4-one (3)], the IC50 was determined as 9.34 µM. Turning to `O=C1CSC(N/N=C/c2ccc([N+](=O)[O-])cc2)=N1` [(E)-2((E)-(4-Nitrobenzylidene)hydrazono)thiazolidine-4-one (2)], the IC50 turned out to be 26.9 µM. The same measure for `O=C1CS/C(=N/N=C/c2ccccc2[N+](=O)[O-])N1` [(E)-2-((E)-(2-Nitrobenzylidene)hydrazono)thiazolidin-4-one (1)]: 47.5 µM; for `O=C1CS/C(=N/N=C\C2C=Nc3ccccc32)N1` (centres undefined) [(E)-2-(E)-((1H-Indole-3-yl)methylene)hydrazono)thiazolidine-4-one (16)]: 51.4 µM; for `COc1cccc(/C=N/N=C2\NC(=O)CS2)c1OC` [(E)-2-((E)-(2,3-Dimethoxybenzylidene)hydrazono)thiazolidin-4-one (4)]: 52.5 µM. The same measure for `NC(N)=S` [thiocarbamide]: 21.2 µM. As for `O=C1CS/C(=N/N=C/c2cccc([N+](=O)[O-])c2)N1` [(E)-2((E)-(3-nitrobenzylidene)hydrazono)thiazolidin-4-one (8)], the IC50 is 8.43 µM.
